Laboratory results taken from patent US20150141439A1, “PHARMACEUTICAL COMPOSITION FOR THE PREVENTION OR TREATMENT OF BRAIN TUMOR OR TEMODAL RESISTANT GLIOBLASTOMA MULTIFORM COMPRISING AZATHIOPRINE AS AN ACTIVE INGREDIENT” (KOREA RESEARCH INSTITUTE OF CHEMICAL TECHNOLOGY, priority 2012, published 2015).

Experiments:
[1] = test system: GBM #10 glioblastoma multiform patient originated cells; assay: Neurosphere formation inhibition, GBM #10; format: cell-based, human; parameters: key: S: strong effect; I: intermediate effect; R: rare effect; settings: GBM #10, type D (non-classified), Azathioprine 1 μM, duration 10 day
Experimental: (§1) Particularly, to investigate neurosphere formation, glioblastoma multiform cells were cultured for a certain time and the cells were distributed again in culture vessels, followed by additional culture. Then, the number of newly generated neurospheres was measured. First, the glioblastoma multiform patient originated cells were sub-cultured, which were distributed in a 96-well plate (20, 50, and 200 cells in 50 μl of culture medium/well). […] Then, the compound of formula 1 (azathioprine) and the compound of Comparative Example 1 (Temodal) were added to 50 μl of cell culture medium with the same concentrations as the above once a week, which were then cultured for 7˜23 days. When neurosphere was formed at least 50 μm in the control group not treated with the compound, the number of neurospheres in each well was counted to compare the neurosphere formation before and after the treatment of the compound of formula 1 (azathioprine) and the compound of Comparative Example 1 (Temodal).
(§2) The glioblastoma multiform cells used in this experiment were classified into 4 types, which are type A, type B, type C, and type D, according to the gene expression pattern. Methylation of MGMT (O6-me-G methyltransferase), the DNA repair protein, was confirmed in each cell line. […]

GBM (559T) cells = settings: GBM (559T) cell lysate, azathioprine 10 μM, 24 hours later, compared with before the treatment
[2] = test system: GBM #2 glioblastoma multiform patient originated cells; assay: Neurosphere formation inhibition, GBM #2; format: cell-based, human; parameters: key: S: strong effect; I: intermediate effect; R: rare effect; settings: GBM #2, type A (proneural), Azathioprine 1 μM, duration 15 day
Experimental: as §1, §2

[3] = test system: HCT-116 Human colorectal carcinoma; assay: Secondary cytotoxicity test, HCT-116; format: cell-based
Experimental: (§3) Particularly, the cell growth inhibition effect was measured by WST-1 cell proliferation assay [http://www.roche-applied-science.com/PROD_INF/MANUALS/CELL_MAN/apoptosis—087—088.pdf]. The compound of formula 1 was loaded in a 384-well cell culture plate. Three types of glioblastoma multiform cell lines [proneural subtype (559T), mesenchymal subtype (592T), and classical subtype (626T)], normal human astrocytes (NHA), a lung cancer cell line (A549), and a glioblastoma multiform cell line (U87MG) were distributed in the plate at the density of 4.5×10^3 cells/well, and the medium was filled up to make 50 μl per well. At this time, the concentration of the solvent DMSO for the compound of formula 1 was no more than 0.2%. After culturing the cells for 72 hours, 5 mg/ml of WST-1 reagent was added by 5 μl per well, followed by reaction for 3˜4 hours. Then OD450 was measured to investigate the effect of the compound of formula 1 on cell proliferation.
(§4) To investigate the cell growth inhibition effect of the compound of formula 1 of the present invention (azathioprine) in many different cell lines, secondary cytotoxicity test was performed with the cell lines listed in Table 5 by the same manner as described in Example 1.

[4] = test system: PC3 Human prostate adenocarcinoma; assay: Secondary cytotoxicity test, PC3; format: cell-based; settings: PC-3
Experimental: as §3, §4

[5] = test system: MCF-7 Human breast adenocarcinoma; assay: Secondary cytotoxicity test, MCF-7; format: cell-based; settings: MCF7
Experimental: as §3, §4

[6] = test system: GBM #6 glioblastoma multiform patient originated cells; assay: Neurosphere formation inhibition, GBM #6; format: cell-based, human; parameters: key: S: strong effect; I: intermediate effect; R: rare effect; settings: GBM #6, type B (classical), Azathioprine 1 μM, duration 23 day
Experimental: (§5) Particularly, to investigate neurosphere formation, glioblastoma multiform cells were cultured for a certain time and the cells were distributed again in culture vessels, followed by additional culture. Then, the number of newly generated neurospheres was measured. First, the glioblastoma multiform patient originated cells were sub-cultured, which were distributed in a 96-well plate (20, 50, and 200 cells in 50 μl of culture medium/well). 2, 6, and 20 μM of the compound of formula 1 (azathioprine) and the compound of Comparative Example 1 (Temodal) were treated thereto by 50 μl per well to make the final concentrations of 1, 3, and 10 μM. Then, the compound of formula 1 (azathioprine) and the compound of Comparative Example 1 (Temodal) were added to 50 μl of cell culture medium with the same concentrations as the above once a week, which were then cultured for 7˜23 days. When neurosphere was formed at least 50 μm in the control group not treated with the compound, the number of neurospheres in each well was counted to compare the neurosphere formation before and after the treatment of the compound of formula 1 (azathioprine) and the compound of Comparative Example 1 (Temodal).
(§6) The glioblastoma multiform cells used in this experiment were classified into 4 types, which are type A, type B, type C, and type D, according to the gene expression pattern. […]

[7] = test system: normal human astrocytes (NHA); settings: azathioprine 10 μM, 24 hours later, before and after the treatment
[8] = test system: GBM #7 glioblastoma multiform patient originated cells; assay: Neurosphere formation inhibition, GBM #7; format: cell-based, human; parameters: key: S: strong effect; I: intermediate effect; R: rare effect; settings: GBM #7, type B (classical), Azathioprine 1 μM, duration 23 day
Experimental: as §5, §6

[9] = test system: GBM #5 glioblastoma multiform patient originated cells; assay: Neurosphere formation inhibition, GBM #5; format: cell-based, human; parameters: key: S: strong effect; I: intermediate effect; R: rare effect; settings: GBM #5, type B (classical), Azathioprine 1 μM, duration 21 day
Experimental: as §1, §2

[10] = test system: GBM #9 glioblastoma multiform patient originated cells; assay: Neurosphere formation inhibition, GBM #9; format: cell-based, human; parameters: key: S: strong effect; I: intermediate effect; R: rare effect; settings: GBM #9, type D (non-classified), Azathioprine 1 μM, duration 21 day
Experimental: as §1, §2

[11] = test system: normal human astrocytes (NHA); assay: WST-1 cell proliferation assay, NHA; format: cell-based
Experimental: as §3

[12] = test system: GBM #8 glioblastoma multiform patient originated cells; assay: Neurosphere formation inhibition, GBM #8; format: cell-based, human; parameters: key: S: strong effect; I: intermediate effect; R: rare effect; settings: GBM #8, type C (mesenchymal), Azathioprine 1 μM, duration 15 day
Experimental: as §5, §6

[13] = test system: GBM #3 glioblastoma multiform patient originated cells; assay: Neurosphere formation inhibition, GBM #3; format: cell-based, human; parameters: key: S: strong effect; I: intermediate effect; R: rare effect; settings: GBM #3, type A (proneural), Azathioprine 1 μM, duration 21 day
Experimental: as §1, §2

Cn1cnc([N+](=O)[O-])c1Sc1ncnc2nc[nH]c12 [Azathioprine, 6-(1-methyl-4-nitro-1H-imidazol-5-ylthio)-7H-purine]
inhibition of neurosphere formation [1]: S
concentrations of azathioprine metabolites (TGMP, MeTIMP, MeTGMP, TIMP) in cell lysate (GBM (559T) cells): significantly raised
inhibition of neurosphere formation [2]: S
IC50 [3]: 5.5 µM
IC50 [4]: 6.7 µM
IC50 [5]: 2.6 µM
inhibition of neurosphere formation [6]: S
concentrations of azathioprine metabolites (TGMP, MeTIMP, MeTGMP, TIMP) in cell lysate [7]: not much changed
inhibition of neurosphere formation [8]: S
inhibition of neurosphere formation [9]: S
inhibition of neurosphere formation [10]: S
inhibition at 0.032 µM ([11]; Homo sapiens, Astrocyte, 0.032 μM, 72 hours, read-out: Cell Growth Inhibition (% Inhibition)): 1.9%
inhibition at 0.1 µM ([11]; Homo sapiens, Astrocyte, 0.1 μM, 72 hours, read-out: Cell Growth Inhibition (% Inhibition)): 5.9%
inhibition at 0.32 µM ([11]; Homo sapiens, Astrocyte, 0.32 μM, 72 hours, read-out: Cell Growth Inhibition (% Inhibition)): 11%
inhibition at 1 µM ([11]; Homo sapiens, Astrocyte, 1.0 μM, 72 hours, read-out: Cell Growth Inhibition (% Inhibition)): 8.3%
inhibition at 3.2 µM ([11]; Homo sapiens, Astrocyte, 3.2 μM, 72 hours, read-out: Cell Growth Inhibition (% Inhibition)): 10.5%
inhibition at 10 µM ([11]; Homo sapiens, Astrocyte, 10 μM, 72 hours, read-out: Cell Growth Inhibition (% Inhibition)): -2.4%
GI50 ([11]; Homo sapiens, Astrocyte, 72 hours): > 10 µM
toxicity in normal astrocytes ([11]; WST-1, up to 10 μM): did not cause toxicity
inhibition of neurosphere formation [12]: S
inhibition of neurosphere formation [13]: S
